The text below walks through data of US7973062B2, “Androgen receptor-ablative agents” (The Ohio State University Research Foundation, priority 2008, dated 2011).

Common to all, as to format: cell-based
One test deals with LNCaP and PC-3 cells. The experiment in a line: Cell counting assay for cell proliferation, LNCaP versus PC-3. Conditions: Coulter counter (FIG. 5B). How it is done: (§1) Cell Counting and Cell Viability Assay. LNCaP or PC-3 cells were placed in six-well plates (2.5×10^5 cells/well) in 10% FBS-supplemented RPMI 1640 for 24 h, and treated with various concentrations of compound 12 for additional 24, 48 and 72 h. Cells were then trypsinized and counted by using a Coulter counter (Model Z1 D/T, Beckman Coulter, Fullerton, Calif.). Cell viability was assessed by using the 3-(4,5-dimethylthiazol-2-yl)-2,5-diphenyl-2H-tetrazolium bromide (MTT) assay in six replicates in 96-well plates. LNCaP or PC-3 cells were seeded at 6000 cells per well in 10% FBS-supplemented RPMI 1640 for 24 h, followed by treatments with various compounds in 5% FBS-supplemented RPMI 1640 at the indicated concentrations. Controls received DMSO at a concentration equal to that in drug-treated cells. After the end of incubation, MTT (0.5 mg/ml) in 10% FBS-supplemented RPMI 1640 was added to each well, and cells were incubated at 37° C. for 2 hours. Medium was removed and the reduced MTT dye was solubilized in DMSO (200 μl/well). Absorbance was determined at 570 nm by a 96-well plate reader.

For test [1], the system named is PARP cleavage, caspase 3 and caspase 7 activation. The test can be described thus: Western blot of apoptosis-related biomarkers in LNCaP cells. Conditions: 72 h.
A further test relates to LNCaP cells. The test can be described thus: Flow cytometric cell cycle analysis in LNCaP cells. Conditions: 72 h. On the procedure: Cell Cycle Analysis. LNCaP cells were seeded in 6-well plates ([…]) and treated with different concentrations of compound 12 for 72 h. After extensive washing with PBS, cells were trypsinized followed by fixation in ice-cold 80% ethanol at 4° C. overnight. Cells were then centrifuged for 5 min at 1500×g at room temperature, and stained with propidium iodide (50 μg/ml) and RNase A (100 units/ml) in PBS. Cell cycle phase distributions were determined on a FACScort flow cytometer and analyzed by the ModFitLT V3.0 program.

Test [2] concerns PC-3 androgen-nonresponsive prostate cancer cells. The experiment in a line: MTT cell viability assay, PC-3 cells. Conditions: Homo sapiens, 5% FBS, read-out: IC50 for suppressing cell viability. On the procedure:
as §1

The next test addresses T1, PPARγ (Homo sapiens, UniProt P37231).
T1 construct: In PC-3 cells transfected with a reporter construct (PPRE-x3-TK-Luc); endogenous in cells; host or cells: PC-3
T1 sequence (P37231 1-505): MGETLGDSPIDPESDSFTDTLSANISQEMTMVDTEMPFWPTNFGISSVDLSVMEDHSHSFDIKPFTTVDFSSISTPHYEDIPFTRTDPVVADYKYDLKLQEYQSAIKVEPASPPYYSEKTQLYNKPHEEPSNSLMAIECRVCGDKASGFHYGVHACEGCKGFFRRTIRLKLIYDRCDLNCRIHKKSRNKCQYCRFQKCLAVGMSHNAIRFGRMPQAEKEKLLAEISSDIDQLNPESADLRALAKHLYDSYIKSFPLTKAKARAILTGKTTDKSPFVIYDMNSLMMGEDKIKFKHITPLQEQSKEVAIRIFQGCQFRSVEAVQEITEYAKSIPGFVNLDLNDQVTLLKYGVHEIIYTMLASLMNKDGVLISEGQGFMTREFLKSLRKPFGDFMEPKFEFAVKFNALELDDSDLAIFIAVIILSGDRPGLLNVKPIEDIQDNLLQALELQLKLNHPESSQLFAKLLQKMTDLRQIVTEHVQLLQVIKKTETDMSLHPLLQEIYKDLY
The test can be described thus: PPRE-luciferase reporter assay (PPRE-x3-TK-Luc) in PC-3 cells. As to conditions: PC-3 cells transfected with PPRE-x3-TK-Luc. The text has this:
Transfection and Luciferase assay. The 3.6-kilobase AR promoter-linked reporter plasmid p-3600ARCAT was kindly provided by Dr. Chawnshang Chang (University of Rochester Medical Center, Rochester, N.Y.). The AR promoter gene (−3600 to +550) encompassing the transcription start site was isolated by using PCR to generate hAR-luc with suitable primers. The fragment was subcloned into the pGL3 luciferase reporter vector (Promega, Madison, Wis.) at KpnI and BglII in the multiple cloning site. The PPRE-x3-TK-Luc reporter vector contains three copies of the PPAR-response element (PPRE) upstream of the thymidine kinase promoter-luciferase fusion gene and was kindly provided by Dr. Bruce Spiegelman (Harvard University, Cambridge, Mass.). The pCMVSp1 plasmid was purchased from Origene Technologies, Inc. (Rockville, Md.). LNCaP or PC3 cells were transfected with 5 μg of individual plasmids in an Amaxa Nucleofector using a cell line-specific nucleofector kit according to the manufacturer's protocol (Amaxa Biosystems, Cologne, Germany), and then seeded in 6-well plates at 5×10^5 cells per well for 48 h. […] For each transfection, herpes simplex virus thymidine kinase promoter-driven Renilla reniformis luciferase was used as an internal control for normalization.
Fifty-μl aliquots of the lysates were added to 96-well plates, and luciferase activity was monitored after adding 100 μl of luciferase substrate (Promega) each well by using a MicroLumatPlus LB96V luminometer (Berthold Technologies, Oak Ridge, Tenn.) with the WinGlow software package. All transfection experiments were carried out in six replicate.

SMILES strings stand for the structures. Read-outs that look alike come from different tables or passages of the source.

For `CC1(CN2C(=O)S/C(=C\c3ccc(O)c(C(F)(F)F)c3)C2=O)CCCCC1` [Compound 12, 5-(4-Hydroxy-3-trifluoromethyl-benzylidene)-3-(1-methyl-cyclohexylmethyl)-thiazolidine-2,4-dione], in the test on LNCaP and PC-3 cells, the “potency in inhibiting proliferation of LNCaP cells compared to PC-3 cells” value is given as “at least twofold higher potency”. Further, the “apoptosis-related biomarkers: PARP cleavage, proteolytic activation of caspase 3 and caspase 7” value in test [1] is “dose-dependent effects”. Moreover, the cell cycle distribution result in the test with LNCaP cells is recorded as “dose-dependent increase in the sub-G1 population, accompanied by decreases in the G2/M phase”. In addition, the IC50 in test [2] (48 h) turned out to be 15 µM; in test [2] (72 h), 12 µM. At PPARγ, the “PPARγ activation (in words)” value is given as “lacked appreciable activity”.
